Reference: patent publication US10125134B2 (Mirati Therapeutics, Inc., priority 2016, dated 2018)
Structures can show the parent of a compound that is named as a salt. Where two headings read alike, the source gives them in different places.

Experiments:
KRas G12C = KRas G12C (Homo sapiens, UniProt P01116, C118S/C51S/C80L/G12C); experiment: KRas G12C Modification Assay (LCMS detection of covalent adduct); assay type: binding
Summary of the method: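 Cys-light KRas G12C mutant protein incubated with compound in K-Ras assay buffer, reactions quenched at set time points with 25 mM acetic acid and analysed by intact-protein LC/MS on a C-3 column. Deconvoluted mass heights expressed as percent of control (POC) relative to compound-free protein.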

[1] = test system: NCI-H358 cells (express KRas G12C), Phospho-ERK; experiment: Cellular inhibition of KRas G12C: Phospho-ERK in NCI-H358 cells; assay type: cell-based
Summary of the method: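 IC50 derived by 4-parameter fit of GAPDH-normalized pERK(Thr202/Tyr204) signal, as percent of DMSO control. Signal came from in-cell immunodetection with infrared secondaries after 3 h compound exposure of KRas G12C NCI-H358 cells at 0.5% DMSO.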

[2] = normalized percent of control, tested at 5 μM concentration for 3 hours
[3] = Homo sapiens, pERK(Thr202/Tyr204) normalized with GAPDH, NCI-H358 cells, 3 hours, read-out: IC50
[4] = Homo sapiens, NCI-H358, 3 h, pERK(Thr202/Tyr204) normalized with GAPDH, NCI-H358 cells, 3 hours, read-out: IC50

Compound	POC (KRas G12C; [2])	IC50 [1, 3] [nM]	IC50 [1, 4] [nM]	also measured
C=CC(=O)N1CCN(c2nc(OCCN(C)C)nc3c2CCN(c2cc(O)cc4ccccc24)C3)CC1CCO (centres unmarked) [Example 171, 1-(4-(2-(2-(dimethylamino)ethoxy)-7-(3-hydroxynaphthalen-1-yl)-5,6,7,8-tetrahydropyrido[3,4-d]pyrimidin-4-yl)-2-(2-hydroxyethyl)piperazin-1-yl)prop-2-en-1-one]				POC (KRas G12C; 5 µM): C (key: “A”≤25% POC; “B”>25% POC−≤50% POC; “C”>50% POC); IC50 ([1]; Homo sapiens, NCI-H358, 3 h): > 1000 nM
C=CC(=O)N1CCN(c2nc(OCCCN3CC4CC4C3)nc3c2CCN(c2cc(O)cc4ccccc24)C3)CC1 (centres unmarked) [Example 206, 1-(4-(2-(3-(3-azabicyclo[3.1.0]hexan-3-yl)propoxy)-7-(3-hydroxynaphthalen-1-yl)-5,6,7,8-tetrahydropyrido[3,4-d]pyrimidin-4-yl)piperazin-1-yl)prop-2-en-1-one]	C (“C”>50% POC)	0.1 to 1000		
C=CC(=O)N1CCN(c2nc(OC[C@@H]3CCCN3CCOC)nc3c2CCN(c2cc(O)cc4ccccc24)C3)CC1 [Example 144, (5)-1-(4-(7-(3-hydroxynaphthalen-1-yl)-2-((1-(2-methoxyethyl)pyrrolidin-2-yl)methoxy)-5,6,7,8-tetrahydropyrido[3,4-d]pyrimidin-4-yl)piperazin-1-yl)prop-2-en-1-one]	C (“C”>50% POC)		0.1 to 1000	
C=CC(=O)N1CCN(c2nc(OCCN(C)CCO)nc3c2CCN(c2cc(O)cc4ccccc24)C3)CC1 [Example 83, 1-(4-(2-(2-((2-hydroxyethyl)(methyl)amino)ethoxy)-7-(3-hydroxynaphthalen-1-yl)-5,6,7,8-tetrahydropyrido[3,4-d]pyrimidin-4-yl)piperazin-1-yl)prop-2-en-1-one]	C (“C”>50% POC)		> 1000	
C=CC(=O)N1CCN(c2nc(OCCCN3C[C@@H]4C[C@H]3CO4)nc3c2CCN(c2cc(O)cc4ccccc24)C3)CC1 [Example 104, 1-(4-(2-(3-((1 S,4S)-2-oxa-5-azabicyclo[2.2.1]heptan-5-yl)propoxy)-7-(3-hydroxynaphthalen-1-yl)-5,6,7,8-tetrahydropyrido[3,4-d]pyrimidin-4-yl)piperazin-1-yl)prop-2-en-1-one]	C (“C”>50% POC)		0.1 to 1000	
C=CC(=O)N1CCN(c2nc(OC[C@H]3CCC(C)(C)N3)nc3c2CCN(c2cc(O)cc4ccccc24)C3)CC1 [Example 174, (R)-1-(4-(2-((5,5-dimethylpyrrolidin-2-yl)methoxy)-7-(3-hydroxynaphthalen-1-yl)-5,6,7,8-tetrahydropyrido[3,4-d]pyrimidin-4-yl)piperazin-1-yl)prop-2-en-1-one]	C (“C”>50% POC)		> 1000	
C=CC(=O)N1CCN(c2nc(OCCN(C)C)nc3c2CCN(c2cc(O)cc4ccccc24)C3)CC1CC#N (centres unmarked) [Example 170, 2-(1-acryloyl-4-(2-(2-(dimethylamino)ethoxy)-7-(3-hydroxynaphthalen-1-yl)-5,6,7,8-tetrahydropyrido[3,4-d]pyrimidin-4-yl)piperazin-2-yl)acetonitrile]	C (“C”>50% POC)	0.1 to 1000		
C=CC(=O)N1CCN(c2nc(OCCc3ccccn3)nc3c2CCN(c2cc(O)cc4ccccc24)C3)CC1 [Example 126, 1-(4-(7-(3-hydroxynaphthalen-1-yl)-2-(2-(pyridin-2-yl)ethoxy)-5,6,7,8-tetrahydropyrido[3,4-d]pyrimidin-4-yl)piperazin 1-yl)prop-2-en-1-one trifluoroacetate]	C (“C”>50% POC)		> 1000	
C=CC(=O)N1CCN(c2nc(OCCN3CCOCC3)nc3c2CCN(c2cc(O)cc4ccccc24)C3)CC1 [Example 117, 1-(4-(7-(3-hydroxynaphthalen-1-yl)-2-(2-morpholinoethoxy)-5,6,7,8-tetrahydropyrido[3,4-d]pyrimidin-4-yl)piperazin-1-yl)prop-2-en-1-one]	C (“C”>50% POC)		> 1000	
C=CC(=O)N1CCN(c2nc(OCCN3CCC(F)(F)CC3)nc3c2CCN(c2cc(O)cc4ccccc24)C3)CC1 [Example 109, 1-(4-(2-(2-(4,4-difluoropiperidin-1-yl)ethoxy)-7-(3-hydroxynaphthalen-1-yl)-5,6,7,8-tetrahydropyrido[3,4-d]pyrimidin-4-yl)piperazin-1-yl)prop-2-en-1-one]	C (“C”>50% POC)		> 1000	
C=CC(=O)N1CCN(c2nc(OCCN(CC)CC)nc3c2CCN(c2c(C)ccc4[nH]ncc24)C3)CC1 [Example 163, 1-(4-(2-(2-(diethylamino)ethoxy)-7-(5-methyl-1H-indazol-4-yl)-5,6,7,8-tetrahydropyrido[3,4-d]pyrimidin-4-yl)piperazin-1-yl)prop-2-en-1-one]	C (“C”>50% POC)	> 1000		
C=CC(=O)N1CCN(c2nc(OCCCN3CCOCC3)nc3c2CCN(c2cc(O)ccc2SC(F)(F)F)C3)CC1 [Example 214, 1-(4-(7-(5-hydroxy-2-((trifluoromethyl)thio)phenyl)-2-(3-morpholinopropoxy)-5,6,7,8-tetrahydropyrido[3,4-d]pyrimidin-4-yl)piperazin-1-yl)prop-2-en-1-one]	C (“C”>50% POC)	> 1000		
C=CC(=O)N1CCN(c2ncnc3c2CCN(c2c(O)cccc2F)C3)CC1 [Example 4, 1-(4-(7-(2-fluoro-6-hydroxyphenyl)-5,6,7,8-tetrahydropyrido[3,4-d]pyrimidin-4-yl)piperazin-1-yl)prop-2-en-1-one]	A (“A”≤25% POC)		> 1000	
C=CC(=O)N1CCN(c2nc(O[C@H](C)CN(C)C)nc3c2CCN(c2cc(OC(F)(F)F)ccc2O)C3)CC1 [Example 86, (R)-1-(4-(2-((1-(dimethylamino)propan-2-yl)oxy)-7-(2-hydroxy-5-(trifluoromethoxy)phenyl)-5,6,7,8-tetrahydropyrido[3,4-d]pyrimidin-4-yl)piperazin-1-yl)prop-2-en-1-one]	A (“A”≤25% POC)	> 1000		
C=CC(=O)N1CCN(c2nc(OC[C@@H]3CCCN3C)nc3c2CCN(c2ccccc2C(F)(F)F)C3)CC1CC#N (stereo partly drawn) [Example 210, 2-(1-acryloyl-4-(2-(((S)-1-methylpyrrolidin-2-yl)methoxy)-7-(2-(trifluoromethyl)phenyl)-5,6,7,8-tetrahydropyrido[3,4-d]pyrimidin-4-yl)piperazin-2-yl)acetonitrile]	C (“C”>50% POC)	0.1 to 1000		

Further lines, with some results ahead:

POC (KRas G12C; [2])	Compound	IC50 [1, 3] [nM]	IC50 [1, 4] [nM]	also measured
A (“A”≤25% POC)	C=CC(=O)N1CCN(c2nc(OC[C@@H]3CCCN3C)nc3c2CCN(c2cccc4ccc(OC)cc24)C3)CC1CC#N (stereo partly drawn) [Example 255, 2-[4-[7-(7-methoxy-1-naphthyl)-2-[[(2S)-1-methylpyrrolidin-2-yl]methoxy]-6,8-dihydro-5H-pyrido[3,4-d]pyrimidin-4-yl]-1-prop-2-enoyl-piperazin-2-yl]acetonitrile]		> 1000	
C (“C”>50% POC)	CN(C)C/C=C/C(=O)N1CCN(c2nc(OC[C@@H]3CCCN3C)nc3c2CCN(c2cccc4ccccc24)C3)C[C@@H]1CC#N [Example 235, 2-((S)-1-((E)-4-(dimethylamino)but-2-enoyl)-4-(2-(((S)-1-methylpyrrolidin-2-yl)methoxy)-7-(naphthalen-1-yl)-5,6,7,8-tetrahydropyrido[3,4-d]pyrimidin-4-yl)piperazin-2-yl)acetonitrile]		0.1 to 1000	
C (“C”>50% POC)	C=CC(=O)N1CCN(c2nc(OC[C@H]3CN(C)CCN3)nc3c2CCN(c2cccc4ccccc24)C3)CC1CC#N (stereo partly drawn) [Example 224, 2-(1-acryloyl-4-(2-(((R)-4-methylpiperazin-2-yl)methoxy)-7-(naphthalen-1-yl)-5,6,7,8-tetrahydropyrido[3,4-d]pyrimidin-4-yl)piperazin-2-yl)acetonitrile]		0.1 to 1000	
C (“C”>50% POC)	C=CC(=O)N1CCN(c2nc(OC[C@@H]3CCCN3C)nc3c2CCN(c2cccc4ccccc24)C3)CC1COC (stereo partly drawn) [Example 428, 1-(2-(methoxymethyl)-4-(2-(((S)-1-methylpyrrolidin-2-yl)methoxy)-7-(naphthalen-1-yl)-5,6,7,8-tetrahydropyrido[3,4-d]pyrimidin-4-yl)piperazin-1-yl)prop-2-en-1-one]			IC50 ([1]; pERK(Thr202/Tyr204) normalized with GAPDH, NCI-H358 cells, 3 hours, read-out: IC50): > 1000 nM
C (“C”>50% POC)	C=CC(=O)N1CCN(c2nc(OC[C@@H]3CCCN3C)nc3c2CCN(c2cccc(OC)c2C)C3)C[C@@H]1CC#N [Example 324, 2-[(2S)-4-[7-(3-methoxy-2-methyl-phenyl)-2-[[(2S)-1-methylpyrrolidin-2-yl]methoxy]-6,8-dihydro-5H-pyrido[3,4-d]pyrimidin-4-yl]-1-prop-2-enoyl-piperazin-2-yl]acetonitrile]		0.1 to 1000	
C (“C”>50% POC)	C=CC(=O)N1CCN(c2nc(OCCCN3C[C@H]4C[C@@H]3CO4)nc3c2CCN(c2ccccc2C(F)(F)F)C3)CC1CC#N (stereo partly drawn) [Example 280, 2-(4-(2-(3-((1R,4R)-2-oxa-5-azabicyclo[2.2.1]heptan-5-yl)propoxy)-7-(2-(trifluoromethyl)phenyl)-5,6,7,8-tetrahydropyrido[3,4-d]pyrimidin-4-yl)-1-acryloylpiperazin-2-yl)acetonitrile]	0.1 to 1000		
C (“C”>50% POC)	C=CC(=O)N1CCN(c2nc(N3CC[C@H](N(C)C)C3)nc3c2CCN(c2cccc4ccccc24)C3)C[C@@H]1CC#N [Example 402]		0.1 to 1000	
